Test results as given in patent US6383774B1, “Parasitic nematode transglutaminase, nucleic acid molecules and uses thereof” (Heska Corporation, priority 1996, dated 2002).
Several values for one entry are separate records, joined by “and”; a condition that tells them apart may be missing. Equal values may be shown once. Entries after “also recorded” stand apart in the source; their conditions may differ. Read-outs that look alike come from different tables or passages of the source.

What was measured:
[1] = system: PHIS-PDiTG468; assay type: biochemical, D. immitis
[2] = system: D. immitis transglutaminase; assay: Effect of ions, inhibitors and other reagents on activity of transglutaminase purified from adult D. immitis worms (microtiter plate assay); assay type: biochemical
[3] = system: D. immitis L3 larvae; assay: D. immitis L3 larval molting in in vitro larval culture; assay type: cell-based
[4] = molecular target: T1, PDI from bovine liver (Bos taurus, UniProt P05307); assay: Effect of transglutaminase inhibitors on PDI activity of purified bovine liver PDI (scrambled RNase reactivation); assay type: biochemical; settings: inhibitor 1 mM
T1 sequence (P05307 21-510): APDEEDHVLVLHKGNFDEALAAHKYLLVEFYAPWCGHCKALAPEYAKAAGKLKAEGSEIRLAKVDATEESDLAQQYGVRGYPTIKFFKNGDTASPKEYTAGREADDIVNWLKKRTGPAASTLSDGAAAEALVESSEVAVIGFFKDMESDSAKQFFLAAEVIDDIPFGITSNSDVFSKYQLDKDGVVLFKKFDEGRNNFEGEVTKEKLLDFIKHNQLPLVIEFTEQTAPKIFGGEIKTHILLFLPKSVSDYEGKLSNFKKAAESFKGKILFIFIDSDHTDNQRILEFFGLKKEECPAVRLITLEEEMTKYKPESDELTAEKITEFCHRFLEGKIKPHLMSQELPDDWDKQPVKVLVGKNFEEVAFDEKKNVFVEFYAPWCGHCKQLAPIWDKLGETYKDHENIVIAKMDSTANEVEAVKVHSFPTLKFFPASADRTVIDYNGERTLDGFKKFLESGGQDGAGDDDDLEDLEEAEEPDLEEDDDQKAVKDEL

[5] = system: PHIS-PDiTG468; assay type: biochemical, D. immitis; remark: listed apart in the source
[6] = molecular target: bovine protein disulfide isomerase (PDI) (Bos taurus, UniProt P05307)
[7] = system: dimethylcasein; assay type: biochemical
[8] = reagent 10 mM, with 10 mM CaCl2 and 10 mM dithiothreitol
[9] = 50 μM, inhibitor present during first 24 hr of L3 culture
[10] = 100 μM, inhibitor present during first 24 hr of L3 culture
[11] = reagent 1 mM, with 10 mM CaCl2 and 10 mM dithiothreitol

## O[C@H](CS)[C@H](O)CS (racemic) [Dithiothreitol]
[1]
  Effect on transglutaminase activity of PHIS-PDiTG468 (in words): more active in the absence of DTT
[2]
  Effect on activity of transglutaminase purified from adult D. immitis worms (in words): increased the enzyme activity substantially

## N.N.O=S(=O)(O)O [(NH4)2SO4]
[2]; [8]
  Transglutaminase activity (% of control): 0 % of control

## NCCSSCCN [Cystamine]
[3]; 25 μM, L3 cultured 6 days
  Percent molted: 61%
[3]; 50 μM, L3 cultured 6 days
  Percent molted: 62%
[3]; [9]
  Percent molted: 68%
[3]; 75 μM, L3 cultured 6 days
  Percent molted: 17%
[3]; 85 μM, L3 cultured 6 days
  Percent molted: 1%
[3]; 100 μM final concentration
  Inhibition of molting of L3 to L4 (in words): completely inhibited the molting process
[3]; 100 μM, L3 cultured 6 days
  Percent molted: 0%
[3]; [10]
  Percent molted: 13%
[3]; added on day 2 during the culture
  Inhibition of larval molting (in words): very effective inhibitor of larval molting
[1]
  Activity (mU ± SEM): 46.4 ± 4.6 mU and 28.3 ± 2.2 mU
  Effect on transglutaminase activity of PHIS-PDiTG468 (in words): inhibited the transglutaminase activity
[2]
  Effect on activity of transglutaminase purified from adult D. immitis worms (in words): inhibited competitively
[2]; [11]
  Transglutaminase activity (% of control): 52 % of control
[4]
  PDI Activity (Mean ± SD) of PDI: 26.4 ± 2.9 ΔA min^−1
[5]
  PDI Activity (Mean ± SD) of PHIS-PDiTG468: 33.3 ± 1.8 ΔA min^−1

## O=C(O)CN(CCN(CC(=O)O)CC(=O)O)CC(=O)O [EDTA]
[1]
  Effect on transglutaminase activity of PHIS-PDiTG468 (in words): inhibited
[6]
  Effect on transglutaminase activity of bovine PDI (in words): inhibited

## O=C(O)CN(CCOCCOCCN(CC(=O)O)CC(=O)O)CC(=O)O [EGTA]
[1]
  Effect on transglutaminase activity of PHIS-PDiTG468 (in words): inhibited
[2]
  Effect on activity of transglutaminase purified from adult D. immitis worms (in words): completely blocked the activity
[2]; [8]
  Transglutaminase activity (% of control): 0 % of control

## Nc1nc2c(ncn2[C@@H]2O[C@H](COP(=O)(O)OP(=O)(O)OP(=O)(O)O)[C@@H](O)[C@H]2O)c(=O)[nH]1 [GTP]
[2]
  Effect on activity of transglutaminase purified from adult D. immitis worms (in words): not affected adversely
[2]; reagent 0.1 mM, with 10 mM CaCl2 and 10 mM dithiothreitol
  Transglutaminase activity (% of control): 100 % of control
[2]; [11]
  Transglutaminase activity (% of control): 95 % of control

## NC(=O)CI [Iodoacetamide]
[3]
  Inhibition of molting of L3 to L4 (in words): able to inhibit
[1]
  Effect on transglutaminase activity of PHIS-PDiTG468 (in words): inhibited the transglutaminase activity
[2]
  Effect on activity of transglutaminase purified from adult D. immitis worms (in words): decreased the activity drastically

## [Cl-].[K+] [KCl]
[2]; reagent 500 mM, with 10 mM CaCl2 and 10 mM dithiothreitol
  Transglutaminase activity (% of control): 54 % of control

## CN(C)c1cccc2c(S(=O)(=O)NCCCCCN)cccc12 [Monodansyl cadaverine]
[3]; 25 μM, L3 cultured 6 days
  Percent molted: 75%
[3]; 50 μM, L3 cultured 6 days
  Percent molted: 63%
[3]; [9]
  Percent molted: 64%
[3]; 75 μM, L3 cultured 6 days
  Percent molted: 28%
[3]; 85 μM, L3 cultured 6 days
  Percent molted: 2.5%
[3]; 100 μM final concentration, listed as MDC
  Inhibition of molting of L3 to L4 (in words): completely inhibited the molting process; also recorded: completely inhibits
[3]; 100 μM, L3 cultured 6 days
  Percent molted: 0%
[3]; [10]
  Percent molted: 41%
[3]; day 6, electron microscopy study
  Molting of larvae cultured in the presence of MDC (in words): failed to molt even on day 6
[1]
  Activity (mU ± SEM): 48.3 ± 4.0 mU and 44.6 ± 5.1 mU
  Effect on transglutaminase activity of PHIS-PDiTG468 (in words): inhibited the transglutaminase activity
[2]
  Effect on activity of transglutaminase purified from adult D. immitis worms (in words): inhibited competitively
[2]; [11]
  Transglutaminase activity (% of control): 9 % of control
[4]
  PDI Activity (Mean ± SD) of PDI: 24.0 ± 2.0 ΔA min^−1
[5]
  PDI Activity (Mean ± SD) of PHIS-PDiTG468: 41.2 ± 2.9 ΔA min^−1

## NCCCCN [Putrescine]
[1]
  Activity (mU ± SEM): 36.5 ± 3.9 mU and 35.3 ± 4.3 mU
  Effect on transglutaminase activity of PHIS-PDiTG468 (in words): inhibited the transglutaminase activity
[2]
  Effect on activity of transglutaminase purified from adult D. immitis worms (in words): inhibited competitively
[2]; [11]
  Transglutaminase activity (% of control): 14 % of control

## OCCS [mercaptoethanol]
[2]
  Effect on activity of transglutaminase purified from adult D. immitis worms (in words): increased the enzyme activity substantially

## Nα-CBZ-Gln-Gly
[2]
  Effect on activity of transglutaminase purified from adult D. immitis worms (in words): affects the enzyme activity only slightly
  Transglutaminase activity (% of control): 92 % of control

## Tris-HCl
[2]
  Effect on activity of transglutaminase purified from adult D. immitis worms (in words): reversibly inhibited the enzyme
  Transglutaminase activity (% of control): 66 % of control and 40 % of control

B1: PDI: bovine protein disulfide isomerase, purified from bovine liver, available from Sigma (protein, UniProt P05307 21-510, looked up)
Protein disulfide-isomerase: APDEEDHVLVLHKGNFDEALAAHKYLLVEFYAPWCGHCKALAPEYAKAAGKLKAEGSEIRLAKVDATEESDLAQQYGVRGYPTIKFFKNGDTASPKEYTAGREADDIVNWLKKRTGPAASTLSDGAAAEALVESSEVAVIGFFKDMESDSAKQFFLAAEVIDDIPFGITSNSDVFSKYQLDKDGVVLFKKFDEGRNNFEGEVTKEKLLDFIKHNQLPLVIEFTEQTAPKIFGGEIKTHILLFLPKSVSDYEGKLSNFKKAAESFKGKILFIFIDSDHTDNQRILEFFGLKKEECPAVRLITLEEEMTKYKPESDELTAEKITEFCHRFLEGKIKPHLMSQELPDDWDKQPVKVLVGKNFEEVAFDEKKNVFVEFYAPWCGHCKQLAPIWDKLGETYKDHENIVIAKMDSTANEVEAVKVHSFPTLKFFPASADRTVIDYNGERTLDGFKKFLESGGQDGAGDDDDLEDLEEAEEPDLEEDDDQKAVKDEL
[7]
  Temperature of optimum transglutaminase activity: 55 °C
[7]; 37 °C
  Activity (mU ± SEM): 30.3 ± 1.0 mU
[7]; 45 °C
  Activity (mU ± SEM): 47.2 ± 2.5 mU
[7]; 55 °C
  Activity (mU ± SEM): 92.1 ± 4.3 mU
[7]; 65 °C
  Activity (mU ± SEM): 67.0 ± 2.9 mU
